Data set [1] deals with Escherichia coli. Briefly: In vivo antibacterial activity against Escherichia coli intraperitoneally injected into C57BL/6 mouse peritonitis model assessed as reduction in bacterial load in blood at 2.5 mg/kg, ip measured after 48 hrs relative to control. It counts as functional, organism-based.
Data set [2] concerns Escherichia coli. Briefly: In vivo antibacterial activity against Escherichia coli intraperitoneally injected into C57BL/6 mouse peritonitis model assessed as reduction in bacterial load in liver at 2.5 mg/kg, ip measured after 48 hrs relative to control. It counts as functional, organism-based.
Data set [3] has as its system Escherichia coli. The data set can be described thus: In vivo antibacterial activity against Escherichia coli intraperitoneally injected into C57BL/6 mouse peritonitis model assessed as reduction in bacterial load in spleen at 2.5 mg/kg, ip measured after 48 hrs relative to control. It counts as functional, organism-based.
For data set [4], the system named is Escherichia coli. The data set can be described thus: In vivo antibacterial activity against Escherichia coli intraperitoneally injected into C57BL/6 mouse peritonitis model assessed as reduction in bacterial load in lung at 2.5 mg/kg, ip measured after 48 hrs relative to control. It counts as functional, organism-based.
Data set [5] concerns Escherichia coli. Briefly: In vivo antibacterial activity against Escherichia coli intraperitoneally injected into C57BL/6 mouse peritonitis model assessed as reduction in bacterial load in kidney at 2.5 mg/kg, ip measured after 48 hrs relative to control. It counts as functional, organism-based.
The test system of data set [6] is Mus musculus. Briefly: In vivo anti-inflammatory efficacy in Escherichia coli intraperitoneally injected into C57BL/6 mouse peritonitis model assessed as reduction in IL-1beta level in blood at 2.5 mg/kg, ip measured after 48 hrs by ELISA. It counts as functional, organism-based.
In data set [7] the test system is Mus musculus. Briefly: In vivo anti-inflammatory efficacy in Escherichia coli intraperitoneally injected into C57BL/6 mouse peritonitis model assessed as reduction in IL-6 level in blood at 2.5 mg/kg, ip measured after 48 hrs by ELISA. It counts as functional, organism-based.
The test system of data set [8] is Mus musculus. The data set can be described thus: In vivo anti-inflammatory efficacy in Escherichia coli intraperitoneally injected into C57BL/6 mouse peritonitis model assessed as reduction in TNF-alpha level in blood at 2.5 mg/kg, ip measured after 48 hrs by ELISA. It counts as functional, organism-based.
In data set [9] the test system is Escherichia coli. The data set can be described thus: In vivo antibacterial activity against Escherichia coli intraperitoneally injected into C57BL/6 mouse peritonitis model assessed as mouse survival at 2.5 mg/kg, ip measured after 48 hrs relative to control. It counts as functional.
For data set [10], the system named is Staphylococcus aureus. Briefly: Antibacterial activity against Staphylococcus aureus ATCC 25923 assessed as inhibition of bacterial growth measured after 24 hrs by broth microdilution method. It counts as functional.
Data set [11] relates to Klebsiella pneumoniae. The data set can be described thus: Antibacterial activity against Klebsiella pneumoniae ATCC 13883 assessed as inhibition of bacterial growth measured after 24 hrs by broth microdilution method. It counts as functional.
Data set [12] has as its system Pseudomonas aeruginosa. The data set can be described thus: Antibacterial activity against Pseudomonas aeruginosa PAO1 assessed as inhibition of bacterial growth measured after 24 hrs by broth microdilution method. It counts as functional. (In general: In broth dilution the organism is exposed to a series of concentrations in liquid medium.)
Data set [13] is described as follows: Hemolytic activity in human RBC assessed as hemolysis incubated for 1 hr by microplate reader. It counts as toxicity, cell-based, Erythrocyte.
The test system of data set [14] is Acinetobacter baumannii. The data set can be described thus: Antibacterial activity against Pandrug-resistant Acinetobacter baumannii assessed as inhibition of bacterial growth measured after 24 hrs by broth microdilution method. It counts as functional.
For data set [15], the system named is Klebsiella pneumoniae. Briefly: Antibacterial activity against Carbapenem-resistant Klebsiella pneumoniae assessed as inhibition of bacterial growth measured after 24 hrs by broth microdilution method. It counts as functional.
The test system of data set [16] is Pseudomonas aeruginosa. Briefly: Antibacterial activity against Carbapenem-resistant Pseudomonas aeruginosa assessed as inhibition of bacterial growth measured after 24 hrs by broth microdilution method. It counts as functional.
Data set [17] has as its system Pseudomonas aeruginosa. The data set can be described thus: Antibacterial activity against Pandrug-resistant Pseudomonas aeruginosa assessed as inhibition of bacterial growth measured after 24 hrs by broth microdilution method. It counts as functional.
The test system of data set [18] is Salmonella typhimurium. The data set can be described thus: Antibacterial activity against Salmonella typhimurium assessed as inhibition of bacterial growth measured after 24 hrs by broth microdilution method. Particulars: Salmonella enterica. It counts as functional, Salmonella enterica subsp. enterica serovar Typhimurium.
In data set [19] the test system is Shigella flexneri. Briefly: Antibacterial activity against Shigella flexneri 301 assessed as inhibition of bacterial growth measured after 24 hrs by broth microdilution method. It counts as functional.
A short description of data set [20]: Stability of the compound in human serum assessed as peptide degradation by RP-HPLC analysis. It counts as ADME, cell-free. Particulars: read-out: T50 (converted).
Data set [21] in a line: Stability of the compound in human serum assessed as retention time by RP-HPLC analysis. It counts as ADME, cell-free.
Data set [22] concerns Cell membrane. Briefly: Induction of Outer membrane damage in Escherichia coli assessed as irregular collapsed and rough surface membrane at 5 uM measured after 24 hrs by SEM imaging analysis.
Data set [23] can be described thus: Stability of the compound in human serum assessed as remaining peptide by RP-HPLC analysis. It counts as ADME, cell-free.
Data set [24] is described as follows: Toxicity in C57BL/6 mouse assessed as death at 25 mg/kg, ip measured during 14 days of study. Particulars: in vivo, 336 h, time 14 day. It counts as organism-based.
Data set [25] is described as follows: Toxicity in C57BL/6 mouse assessed as increase in body weight at 25 mg/kg, ip measured during 14 days of study. It counts as organism-based. Particulars: in vivo, 336 h, time 14 day.
The nature of data set [26]: Toxicity in C57BL/6 mouse assessed as death at 50 mg/kg, ip measured on day 4. It counts as organism-based. Particulars: in vivo, 96 h, time 4 day.
Data set [27] is described as follows: Toxicity in C57BL/6 female mouse assessed as apparent inflammatory exudates ([…], neutrophiles, macrophages) in lungs at 25 mg/kg, ip measured during 14 days of study by H and E staining based analysis. Particulars: in vivo, 336 h, time 14 day. It counts as organism-based.
Data set [28] in a line: Toxicity in C57BL/6 female mouse assessed as juxtaglomerular cells and interstitial fibrous tissues in kidney at 25 mg/kg, ip measured during 14 days of study by H and E staining based analysis. It counts as organism-based. Particulars: in vivo, 336 h, time 14 day.
Data set [29] in a line: Toxicity in C57BL/6 female mouse assessed as haemorrhagic point and blurred white pulp boundary in liver at 25 mg/kg, ip measured during 14 days of study by H and E staining based analysis. It counts as organism-based. Particulars: in vivo, 336 h, time 14 day.
Data set [30] is described as follows: Toxicity in C57BL/6 female mouse assessed as haemorrhagic point and blurred white pulp boundary in spleen at 25 mg/kg, ip measured during 14 days of study by H and E staining based analysis. It counts as organism-based. Particulars: in vivo, 336 h, time 14 day.

Consider four molecules from ChEMBL document CHEMBL6115030, “Systematic All-Hydrocarbon Stapling Analysis for Cecropin A Generates a Potent and Stable Antimicrobial Peptide” (J Med Chem, 2025).

The MIC is the lowest concentration that inhibits growth of the organism. A word on the HC50: it is the concentration that lyses half of the red blood cells.

≈ marks a conversion by molar mass, not a printed value. Calls of active or inactive are those of the source. The rule behind the calls is not given here. Bridge positions count the residues as written; N and C are the ends. Square brackets hold non-standard residues; d marks the D form. Peptide text beside a SMILES is read from it. * marks the point of attachment. S5 = C=CCCC[C@](C)(N)C(=O)O; X1 = CC[C@H](C)CCCCC(=O)*; dDab = NCC[C@@H](N)C(=O)O; Dab = NCC[C@H](N)C(=O)O

For `CC(C)CCCCC(=O)N[C@@H](CCN)C(=O)N[C@H](C(=O)N[C@@H](CCN)C(=O)N[C@H]1CCNC(=O)[C@H]([C@@H](C)O)NC(=O)[C@H](CCN)NC(=O)[C@H](CCN)NC(=O)[C@H](CC(C)C)NC(=O)[C@@H](Cc2ccccc2)NC(=O)[C@@H](CCN)NC1=O)[C@@H](C)O.CC[C@H](C)CCCCC(=O)N[C@@H](CCN)C(=O)N[C@H](C(=O)N[C@@H](CCN)C(=O)N[C@H]1CCNC(=O)[C@H]([C@@H](C)O)NC(=O)[C@H](CCN)NC(=O)[C@H](CCN)NC(=O)[C@H](CC(C)C)NC(=O)[C@@H](Cc2ccccc2)NC(=O)[C@@H](CCN)NC1=O)[C@@H](C)O` (X1-[Dab]T[Dab][Dab][dDab][dF]L[Dab][Dab]T; lactam 4-C), the result in data set [1], in data set [2], in data set [3], in data set [4], in data set [5] and in data set [6] was Active. The result in data set [7] and in [8] was Active.
`CC(C)CCCCC(=O)N[C@@H](CCN)C(=O)N[C@H](C(=O)N[C@@H](CCN)C(=O)N[C@H]1CCNC(=O)[C@H]([C@@H](C)O)NC(=O)[C@H](CCN)NC(=O)[C@H](CCN)NC(=O)[C@H](CC(C)C)NC(=O)[C@@H](Cc2ccccc2)NC(=O)[C@H](CCN)NC1=O)[C@@H](C)O.CC[C@H](C)CCCCC(=O)N[C@@H](CCN)C(=O)N[C@H](C(=O)N[C@@H](CCN)C(=O)N[C@H]1CCNC(=O)[C@H]([C@@H](C)O)NC(=O)[C@H](CCN)NC(=O)[C@H](CCN)NC(=O)[C@H](CC(C)C)NC(=O)[C@@H](Cc2ccccc2)NC(=O)[C@H](CCN)NC1=O)[C@@H](C)O` (X1-[Dab]T[Dab][Dab][Dab][dF]L[Dab][Dab]T; lactam 4-C): the Activity in data set [9] turned out to be 100%.
For the molecule `CC[C@H](C)[C@H](NC(=O)CNC(=O)[C@H](CC(=O)O)NC(=O)[C@H](CCCNC(=N)N)NC(=O)[C@@H](NC(=O)[C@H](CC(N)=O)NC(=O)[C@H](CCC(N)=O)NC(=O)CNC(=O)[C@@H](NC(=O)[C@H](CCCCN)NC(=O)[C@H](CCC(=O)O)NC(=O)[C@@H](NC(=O)[C@H](CCCCN)NC(=O)[C@H](CCCCN)NC(=O)[C@H](Cc1ccccc1)NC(=O)[C@H](CC(C)C)NC(=O)[C@H](CCCCN)NC(=O)[C@H](Cc1c[nH]c2ccccc12)NC(=O)[C@H](CCCCN)NC(C)=O)[C@@H](C)CC)C(C)C)[C@@H](C)CC)C(=O)N[C@H](C(=O)N[C@@H](CCCCN)C(=O)N[C@@H](C)C(=O)NCC(=O)N1CCC[C@H]1C(=O)N[C@@H](C)C(=O)N[C@@]1(C)CCC/C=C\CCC[C@@](C)(C(=O)N[C@@H](CCC(N)=O)C(=O)N[C@@H](C)C(=O)N[C@H](C(=O)N[C@@H](CCC(N)=O)C(=O)N[C@H](C(=O)N[C@@H](C)C(=O)N[C@@H](CCCCN)C(N)=O)[C@@H](C)CC)[C@@H](C)O)NC(=O)[C@H](C(C)C)NC(=O)[C@H](C(C)C)NC(=O)[C@H](C)NC1=O)[C@@H](C)CC` (Ac-KWKLFKKIEKVGQNIRDGIIKAGPA[S5]AVV[S5]QATQIAK-NH2; staple (Z) 26-30), the MIC is 3.13 µM (≈ 13 µg/mL) in data set [10]; 3.13 µM (≈ 13 µg/mL) in [11]; 6.25 µM (≈ 25.9 µg/mL) in data set [12]; under 0.78 µM in [14]; 12.5 µM (≈ 51.8 µg/mL) in data set [15]; over 100 µM in data set [16]. Besides, the MIC worked out at 25 µM (≈ 104 µg/mL) in data set [17], 6.25 µM (≈ 25.9 µg/mL) in data set [18] and 1.56 µM (≈ 6.46 µg/mL) in data set [19]. The Activity entry in data set [13] (erythrocyte, 1 h) is reported as “Non-toxic”.
With “Ac-KWKLFKKIEKVGQNIRDGIIKAGPAVAVVGQATQIAK-NH2”, the MIC in [10] is over 100 µM; in [11] it was 12.5 µM; in [12], 100 µM. Besides, the HC50 at 1 h in data set [13] (red blood cells) stood at 174 µM. Moreover, in data set [20], the half-life is 2.17 h. The Retention_time in data set [21] came to 21.69 min. Further, the result in data set [22], in data set [1], in data set [2], in data set [3], in [4] and in data set [5] was Active. For the same molecule, the result in data set [6], in data set [7] and in data set [8] was Active. Further, in [23], the Stability is recorded as over 50%. For the same molecule, the Activity result in data set [24] is “Non-toxic”; in data set [25], “Toxic”; in data set [26], “Toxic”; in data set [27], “Non-toxic”; in data set [28], “Non-toxic”; in data set [29], “Non-toxic”. Besides, the Activity result is reported as “Non-toxic” in data set [30] and 50% in data set [9].
